Source: patent US20240246977A1, “DEGRADATION OF BRUTON'S TYROSINE KINASE (BTK) BY CONJUGATION OF BTK INHIBITORS WITH E3 LIGASE LIGAND AND METHOD OF USE” (BeiGene Switzerland GmbH, priority 2021, published 2024)
Where two headings read alike, the source gives them in different places. Each block holds one compound with its values, some of them ahead of it.

Experiments:
[1] = system: HEK-293 cells; test: HEK-293 cytotoxicity detection (CellTiter-Glo); assay type: cell-based; conditions: 72 h incubation, CellTiter-Glo luminescence, read-out: HEK293
Summary of the method: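 HEK-293 cells exposed 72 h to 8 compounds doses (4-fold dilutions, top stock 5 mM at 500×) in 0.2% DMSO. Viability by CellTiter-Glo luminescence; inhibition normalised to DMSO high control and low control, IC50 from four-parameter curve fit.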

[2] = target: BTK (Homo sapiens, UniProt Q06187); test: BTK cell degradation in TMD-8 cells, HTRF assay; assay type: cell-based; design: endogenous in cells; host or cells: TMD-8 cells; conditions: 6 h treatment, IC50 (DC50) of BTK degradation
Summary of the method: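 BTK levels read by HTRF in lysates of TMD-8 cells exposed to compounds for 6 h, eight concentrations at 6-fold steps in 0.2% DMSO. Percent degradation versus DMSO and low controls was fitted with a four-parameter equation to give DC50; Dmax is maximal degradation.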

BTK, sequence (Q06187 whole entry): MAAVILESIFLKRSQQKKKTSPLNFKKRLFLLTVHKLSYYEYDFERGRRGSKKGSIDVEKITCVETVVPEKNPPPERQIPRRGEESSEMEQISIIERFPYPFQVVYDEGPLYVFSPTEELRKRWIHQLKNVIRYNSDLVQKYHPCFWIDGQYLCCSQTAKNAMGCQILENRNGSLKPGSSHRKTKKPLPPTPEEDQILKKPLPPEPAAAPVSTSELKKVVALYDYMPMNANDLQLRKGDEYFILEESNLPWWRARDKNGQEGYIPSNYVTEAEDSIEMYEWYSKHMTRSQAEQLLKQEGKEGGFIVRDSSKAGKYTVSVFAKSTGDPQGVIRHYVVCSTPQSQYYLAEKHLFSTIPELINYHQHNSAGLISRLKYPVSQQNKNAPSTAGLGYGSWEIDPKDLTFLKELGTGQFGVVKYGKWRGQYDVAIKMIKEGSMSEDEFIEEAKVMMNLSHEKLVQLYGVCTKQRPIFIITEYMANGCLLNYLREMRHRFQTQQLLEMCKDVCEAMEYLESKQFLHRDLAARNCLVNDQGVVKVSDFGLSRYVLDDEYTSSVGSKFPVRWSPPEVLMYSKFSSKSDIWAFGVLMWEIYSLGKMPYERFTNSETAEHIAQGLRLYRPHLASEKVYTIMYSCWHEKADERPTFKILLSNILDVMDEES

DC50 [2]: 3.52 nM
SMILES: COc1ccccc1C(=O)NCc1cc(F)c(-c2nn3c(c2C(N)=O)Nc2ccc(N4CCN(CC5CCN(c6ccc(N7CCC(=O)NC7=O)cc6)CC5)CC4)cc2CC3)cc1C [Example C48, 7-(4-((1-(4-(2,4-dioxotetrahydropyrimidin-1(2H)-yl)phenyl)piperidin-4-yl)methyl)piperazin-1-yl)-2-(2-fluoro-4-((2-methoxybenzamido)methyl)-5-methylphenyl)-9,10-dihydro-4H-benzo[d]pyrazolo[1,5-a][1,3]diazepine-3-carboxamide]
IC50 ([1]; Homo sapiens, 72 h): > 10000 nM

DC50 [2]: 6.66 nM
SMILES: COc1cccnc1C(=O)NCc1ccc(-c2nn3c(c2C(N)=O)Nc2ccc(N4CCN(CC5CCN(c6ccc(N7CCC(=O)NC7=O)cc6)CC5)CC4)cc2CC3)cc1C [Example C36]
IC50 ([1]; Homo sapiens, 72 h): > 10000 nM

DC50 [2]: 29.4 nM
SMILES: COc1c(F)c(F)c(F)c(F)c1C(=O)NCc1ccc(-c2nn3c(c2C(N)=O)Nc2ccc(N4CCN(CC5CCN(c6ccc(N7CCC(=O)NC7=O)cc6)CC5)CC4)cc2CC3)cc1C [Example C43, 7-(4-((1-(4-(2,4-dioxotetrahydropyrimidin-1(2H)-yl)phenyl)piperidin-4-yl)methyl)piperazin-1-yl)-2-(3-methyl-4-((2,3,4,5-tetrafluoro-6-methoxybenzamido)methyl)phenyl)-9,10-dihydro-4H-benzo[d]pyrazolo[1,5-a][1,3]diazepine-3-carboxamide]
IC50 ([1]; Homo sapiens, 72 h): 979 nM

DC50 [2]: 7.02 nM
SMILES: COc1cc(C)ccc1C(=O)NCc1ccc(-c2nn3c(c2C(N)=O)Nc2ccc(N4CCN(CC5CCN(c6ccc(N7CCC(=O)NC7=O)cc6)CC5)CC4)cc2CC3)cc1C [Example C31, 7-(4-((1-(4-(2,4-dioxotetrahydropyrimidin-1(2H)-yl)phenyl)piperidin-4-yl)methyl)piperazin-1-yl)-2-(4-((2-methoxy-4-methylbenzamido)methyl)-3-methylphenyl)-9,10-dihydro-4H-benzo[d]pyrazolo[1,5-a][1,3]diazepine-3-carboxamide]
IC50 ([1]; Homo sapiens, 72 h): > 10000 nM

DC50 [2]: 55.1 nM
SMILES: CCC(Nc1cc(C(F)(F)F)ccn1)c1ccc(-c2nn3c(c2C(N)=O)Nc2ccc(N4CCN(CC5CCN(c6ccc(N7CCC(=O)NC7=O)cc6)CC5)CC4)cc2CC3)cc1 (stereo not shown) [Example C17, 7-(4-((1-(4-(2,4-dioxotetrahydropyrimidin-1(2H)-yl)phenyl)piperidin-4-yl)methyl)piperazin-1-yl)-2-(4-(1-((4-(trifluoromethyl)pyridin-2-yl)amino)propyl)phenyl)-9,10-dihydro-4H-benzo[d]pyrazolo[1,5-a][1,3]diazepine-3-carboxamide]
IC50 ([1]; Homo sapiens, 72 h): > 10000 nM

DC50 [2]: 2.12 nM
SMILES: COc1cccc(OC)c1C(=O)NCc1ccc(-c2nn3c(c2C(N)=O)Nc2ccc(N4CCN(CC5CCN(c6ccc(N7CCC(=O)NC7=O)cc6)CC5)CC4)cc2CC3)cc1 [Example C22, 2-(4-((2,6-dimethoxybenzamido)methyl)phenyl)-7-(4-((1-(4-(2,4-dioxotetrahydropyrimidin-1(2H)-yl)phenyl)piperidin-4-yl)methyl)piperazin-1-yl)-9,10-dihydro-4H-benzo[d]pyrazolo[1,5-a][1,3]diazepine-3-carboxamide]
IC50 ([1]; Homo sapiens, 72 h): > 10000 nM

Further lines, the compound ahead of its results:

SMILES: NC(=O)c1c(-c2ccc(Oc3ccccc3)cc2)nn2c1Nc1ccc(C3CCN(CCC4CCN(c5ccc(N6CCC(=O)NC6=O)cc5)CC4)CC3)cc1CC2 [Example A28, 7-(1-(2-(1-(4-(2,4-dioxotetrahydropyrimidin-1(2H)-yl)phenyl)piperidin-4-yl)ethyl)piperidin-4-yl)-2-(4-phenoxyphenyl)-9,10-dihydro-4H-benzo[d]pyrazolo[1,5-a][1,3]diazepine-3-carboxamide]
IC50 ([1]; Homo sapiens, 72 h): 81.1 nM | DC50 [2]: 2.01 nM

SMILES: NC(=O)c1c(-c2ccc(Oc3ccccc3)cc2)nn2c1Nc1cc(C3CCN(CCC4CCN(c5ccc(N6CCC(=O)NC6=O)cc5)CC4)CC3)ccc1CC2 [Example A23, 6-(1-(2-(1-(4-(2,4-dioxotetrahydropyrimidin-1(2H)-yl)phenyl)piperidin-4-yl)ethyl)piperidin-4-yl)-2-(4-phenoxyphenyl)-9,10-dihydro-4H-benzo[d]pyrazolo[1,5-a] [1,3]diazepine-3-carboxamide]
IC50 ([1]; Homo sapiens, 72 h): 445 nM | DC50 [2]: 9.23 nM

SMILES: NC(=O)c1c(-c2ccc(Oc3ccccc3)cc2F)nn2c1Nc1ccc(N3CCN(CC4CCN(c5ccc(N6CCC(=O)NC6=O)cc5)CC4)CC3)cc1CC2 [Example A37, 7-(4-((1-(4-(2,4-dioxotetrahydropyrimidin-1(2H)-yl)phenyl)piperidin-4-yl)methyl)piperazin-1-yl)-2-(2-fluoro-4-phenoxyphenyl)-9,10-dihydro-4H-benzo[d]pyrazolo[1,5-a][1,3]diazepine-3-carboxamide]
IC50 ([1]; Homo sapiens, 72 h): 70 nM | DC50 [2]: 4.71 nM

SMILES: NC(=O)c1c(-c2ccc(Oc3ccccc3)cc2)nn2c1Nc1ccc(NC3CCN(CC4CCN(c5cc6c(cc5F)C(=O)N(C5CCC(=O)NC5=O)C6=O)CC4)CC3)cc1CC2 (stereo not shown) [Example A5, 7-((1-((1-(2-(2,6-dioxopiperidin-3-yl)-6-fluoro-1,3-dioxoisoindolin-5-yl)piperidin-4-yl)methyl)piperidin-4-yl)amino)-2-(4-phenoxyphenyl)-9,10-dihydro-4H-benzo[d]pyrazolo[1,5-a][1,3]diazepine-3-carboxamide]
IC50 ([1]; Homo sapiens, 72 h): 83.3 nM | DC50 [2]: 1.45 nM

SMILES: NC(=O)c1c(-c2ccc(C(=O)Nc3cc(C(F)(F)F)ccn3)cc2)nn2c1Nc1ccc(N3CCN(CC4CCN(c5ccc(N6CCC(=O)NC6=O)cc5)CC4)CC3)cc1CC2 [Example B1, 7-(4-((1-(4-(2,4-dioxotetrahydropyrimidin-1(2H)-yl)phenyl)piperidin-4-yl)methyl)piperazin-1-yl)-2-(4-((4-(trifluoromethyl)pyridin-2-yl)carbamoyl)phenyl)-9,10-dihydro-4H-benzo[d]pyrazolo[1,5-a][1,3]diazepine-3-carboxamide]
IC50 [1]: > 10000 nM | DC50 [2]: 0.561 nM

SMILES: Cc1c(C(=O)Nc2cscn2)ccc(-c2nn3c(c2C(N)=O)Nc2ccc(N4CCN(CCc5cccc6c5oc(=O)n6C5CCC(=O)NC5=O)CC4)cc2CC3)c1F (stereo not shown) [Example B96, 7-(4-(2-(3-(2,6-dioxopiperidin-3-yl)-2-oxo-2,3-dihydrobenzo[d]oxazol-7-yl)ethyl)piperazin-1-yl)-2-(2-fluoro-3-methyl-4-(thiazol-4-ylcarbamoyl)phenyl)-9,10-dihydro-4H-benzo[d]pyrazolo[1,5-a][1,3]diazepine-3-carboxamide]
IC50 ([1]; Homo sapiens, 72 h): 116 nM | DC50 [2]: 0.586 nM

SMILES: NC(=O)c1c(-c2ccc(Oc3ccccc3)cc2)nn2c1Nc1cc(C(=O)N3CCC(CN4CCN(c5cc6c(cc5F)C(=O)N(C5CCC(=O)NC5=O)C6=O)CC4)CC3)ccc1CC2 (stereo not shown) [Example A20, 6-(4-((4-(2-(2,6-dioxopiperidin-3-yl)-6-fluoro-1,3-dioxoisoindolin-5-yl)piperazin-1-yl)methyl)piperidine-1-carbonyl)-2-(4-phenoxyphenyl)-9,10-dihydro-4H-benzo[d]pyrazolo[1,5-a][1,3]diazepine-3-carboxamide]
IC50 ([1]; Homo sapiens, 72 h): > 10000 nM | DC50 [2]: 13.4 nM

SMILES: Cc1cc(C)nc(NC(=O)c2ccc(-c3nn4c(c3C(N)=O)Nc3ccc(N5CCN(CC6CCN(c7ccc(N8CCC(=O)NC8=O)cc7)CC6)CC5)cc3CC4)cc2C)c1 [Example B23, 2-(4-((4,6-dimethylpyridin-2-yl)carbamoyl)-3-methylphenyl)-7-(4-((1-(4-(2,4-dioxotetrahydropyrimidin-1(2H1)-yl)phenyl)piperidin-4-yl)methyl)piperazin-1-yl)-9,10-dihydro-4H-benzo[d]pyrazolo[1,5a][1,3]diazepine-3-carboxamide]
IC50 ([1]; Homo sapiens, 72 h): > 10000 nM | DC50 [2]: 0.594 nM

SMILES: NC(=O)c1c(-c2ccc(Oc3ccccc3)cc2)nn2c1Nc1ccc(NC(=O)C3CCN(CC4CCN(c5ccc6c(c5)C(=O)N(C5CCC(=O)NC5=O)C6=O)CC4)CC3)cc1CC2 (stereo not shown) [Example A4, 7-(1-((1-(2-(2,6-dioxopiperidin-3-yl)-1,3-dioxoisoindolin-5-yl)piperidin-4-yl)methyl)piperidine-4-carboxamido)-2-(4-phenoxyphenyl)-9,10-dihydro-4H-benzo[d]pyrazolo[1,5-a][1,3]diazepine-3-carboxamide]
IC50 ([1]; Homo sapiens, 72 h): 78.1 nM | DC50 [2]: 1.26 nM

SMILES: Cc1c(-c2nc(-c3ccccn3)no2)ccc(-c2nn3c(c2C(N)=O)Nc2ccc(N4CCN(CC5CCN(c6ccc(N7CCC(=O)NC7=O)cc6)CC5)CC4)cc2CC3)c1F [Example B46, 7-(4-((1-(4-(2,4-dioxotetrahydropyrimidin-1(2H)-yl)phenyl)piperidin-4-yl)methyl)piperazin-1-yl)-2-(2-fluoro-3-methyl-4-(3-(pyridin-2-yl)-1,2,4-oxadiazol-5-yl)phenyl)-9,10-dihydro-4H-benzo[d]pyrazolo[1,5-a][1,3]diazepine-3-carboxamide]
IC50 ([1]; Homo sapiens, 72 h): > 10000 nM | DC50 [2]: 15 nM

SMILES: Cc1nc(NC(=O)c2ccc(-c3nn4c(c3C(N)=O)Nc3ccc(N5CCN(CC6CCN(c7ccc(N8CCC(=O)NC8=O)cc7)CC6)CC5)nc3CC4)c(F)c2C)ccc1Cl [Example B52, 2-(4-((5-chloro-6-methylpyridin-2-yl)carbamoyl)-2-fluoro-3-methylphenyl)-7-(4-((1-(4-(2,4-dioxotetrahydropyrimidin-1(2H)-yl)phenyl)piperidin-4-yl)methyl)piperazin-1-yl)-9,10-dihydro-4H-pyrazolo[1,5-a]pyrido[3,2-d][1,3]diazepine-3-carboxamide]
IC50 ([1]; Homo sapiens, 72 h): > 10000 nM | DC50 [2]: 4.06 nM
